Experimental data as given in patent US11975009B2, “Use of zinc porphyrin as an antimicrobial” (ZNABLE LLC, priority 2022, dated 2024).

Assays:
Drosophila melanogaster = details: flies fed ZnPor (II); Yoho et al. 2014; cited from earlier work
[1] = test system: Human airway epithelial (BEAS2B, 16HBE, CFBE) and alveolar epithelial (A549) cells; test: LDH in supernatant of pulmonary cell lines; type: cell-based
Experimental: (§1) Representative of one experiment.
Human airway epithelial (BEAS2B, 16HBE, CFBE) and alveolar epithelial (A549) cells were cultured, plated on 12-well plates, serum starved overnight, and treated with increasing doses of ZnPor. Cell culture supernatants were collected after 48 h of treatment, and supernatants were then assayed for lactate dehydrogenase (LDH), a general marker of cell death released into the supernatant after cell lysis.

A549 cells = test: Lung cell toxicity, traditional cell culture; type: cell-based, human; details: concentration exceeding therapeutic range
Text: Sample represented in graph is a traditional cell culture model and the cells were A549 cells—human lung epithelial cells.

Listeria monocytogenes = test: Killing activity against a range of bacteria; type: cell-based
PsA PA14 biofilms = test: PA14 biofilm on polyethylene coupons, LIVE/DEAD stain, CLSM; type: cell-based, Pseudomonas aeruginosa; details: ZnPor 25 μg/mL 2 h, then PEV2 (MOI 10:1) 4 h
Experimental: Biofilms were grown on polyethylene coupons in CDC approved bioreactors in MSG media for […]. Overnight media was replaced with PBS and biofilms were treated as follows: (FIG. 19A) Control (no additions), (FIG. 19B) ZnPor (25 μg/mL) for 2 hours, (FIG. 19C) Phage PEV2 (MOI of 10:1) for 4 hours, or (FIG. 19D) ZnPor (25 μg/mL) for 2 hours followed by the addition of Phage PEV2 (MOI of 10:1) for 4 hours. Coupons were gently washed in distilled water and were treated with LIVE/DEAD™ stain. All coupons were imaged using confocal laser scanning […] microscopy (CLSM) at 60×.

[2] = test system: PAO1 and PA14 strains of PsA; test: Time kill curves, planktonic cells; type: cell-based, Pseudomonas aeruginosa
Experimental: FIGS. 13A-13B show the time kill curve of ZnPor (II) (25 μg/mL) against PAO1 (FIG. 12A) and PA14 (FIG. 12B) strains of PsA. Overnight cultures of strain PAO1 and PA14 grown in MSG media were diluted in fresh MSG to 10^6 cells/mL with fresh medium. ZnPor was added (25 μg/ml) and cultures were grown aerobically, with shaking, for 6 hours. Viable cell count (CFU per ml) was determined by serially diluting bacterial cells at the indicated time points, onto LB agar. Data from 3 separate experiments represents total mean±standard error, total (n=9) and (n=8) respectively.

PsA PAO1 biofilm = test: PAO1 biofilm on coupons, LIVE/DEAD stain, confocal microscopy; type: cell-based, Pseudomonas aeruginosa
Experimental: FIG. 2A: ZnPor (alone) stained biofilm. […] Length of size bar: […].
FIGS. 15A-15B show the biofilms of PAO1 treated with various concentrations of ZnPor (II) and in combination with PEV2 phage. Biofilms of strain PAO1 were grown on coupons cut from polyethylene in MSG media for approximately 16-18 hours. Overnight media was replaced with fresh PBS and were treated with (FIG. 15B) ZnPor (II) only at concentrations of 5, 10 or 25 μg/mL, and incubated for 2 h, (FIG. 15A) phage PEV2 only (MOI=10:1) for 4 h, or (FIG. 15B) ZnPor (II) treatment for 2 h followed by the addition of phage PEV2 (MOI of 10:1) and incubated for an additional 4 h. Coupons were gently washed in distilled water and were treated with LIVE/DEAD™ stain. All coupons were imaged using confocal laser scanning […] microscopy (CLSM) at 60×. Green=LIVE Red=DEAD.
PAO1 was grown overnight in MSG at 37 C with shaking. CDC Bioreactors with PE coupons were inoculated to a final OD of 0.15 in cation adjusted Mueller Hinton broth. Biofilms were grown 16-18 h at 37 degrees C. with 50 rpm stirring. Control biofilm is shown (FIG. 20A). All overnight media in bioreactors were replaced with fresh PBS. Bioreactors treated with ZnPor (II) at 4 μg/mL were left to incubate for 2 hours without stirring. Bioreactors treated with either whole PEV2 phage or the purified DNA genome of PEV2 were incubated for 24 hours without stirring. […]

[3] = test system: Coronavirus isolated from a cold (ATCC); test: Anti-viral activity against a Coronavirus; type: cell-based; details: without light activation
Text: ZnPor (II) can interact with many macromolecules and may bind to important components of a virus, rendering it unable to infect cells. […] This is due to the high levels of ROSs (Reactive Oxygen Species, e.g., superoxide) produced by activation of the porphyrin and which destroy a wide range of macromolecules (proteins, lipids etc.). […] ZnPor can bind to proteins, which may have accounted for how ZnPor (II) acted, in that it bound to the viral proteins such as the spike protein of Coronaviruses. If the Spike proteins bound to ZnPor (II) then the virus couldn't attach to the host cell binding receptor for the spike proteins. There are relatively few antiviral agents. While there are a number of porphyrins that can inactivate viruses using light activation, ZnPor (II) porphyrin has antiviral activity without light activation.

[4] = test system: Mycobacterium smegmatis (proxy for M. tuberculosis); test: Killing activity against a range of bacteria; type: cell-based
SA biofilm = SA biofilm model with bioluminescence reporter; type: cell-based, Staphylococcus aureus; details: escalating doses of ZnPor vs PBS
Experimental: as §1
Biofilm formation was an important defense mechanism utilized by bacteria and was associated with bacterial phenotypes that predict worse clinical outcomes in CF. A biofilm model was deployed using an SA strain with genetically embedded bioluminescence reporter to gauge efficacy of ZnPor against SA biofilm. Plastic plates were coated with bioluminescent SA and treated with escalating doses of ZnPor or PBS. Bioluminescence was measured via spectrophotometer.

PsA = test: Activity of extant antibiotics together with ZnPor (II)

meso-5,10,15-tris(N-methyl-4-pyridyl)-20-(pentafluorophenyl)porphyrinatozinc(II), tris-p-toluene sulfonate [ZnPor]
toxicity to Drosophila (Drosophila melanogaster): not toxic | non-toxic level relative to the MBC for S. aureus MRSA strain (human lung or skin cells): over 100 times | toxicity (human lung or skin cells): no toxicity | LDH dose response ([1]; 16HBE, CFBE, and A549 cells): dose response of decreased LDH | LDH in cell culture supernatant vs treatment without ZnPor ([1]; 48 h of treatment, increasing doses): significantly less LDH | toxicity (A549 cells): No toxicity was observed | killing (Listeria monocytogenes): effective at killing | effect on PA14 cells towards PEV2 phage (PsA PA14 biofilms): sensitive to PEV2 phage | bactericidal concentration ([2]; PsA): 25 µg/mL | MBC:MIC ratio ([2]; derived from kill curves): 2 | biofilm clearing (PsA PAO1 biofilm; 25 μg/mL ZnPor alone, 2 h): almost complete clearing of the biofilm | LIVE/DEAD state of biofilm (PsA PAO1 biofilm; pre-treated with ZnPor (II) 4 μg/mL before adding PEV2 whole phage): only dead cells | viral infection [3]: prevented viral infection | killing [4]: effective at killing | biofilm formation by bioluminescence (SA biofilm): significantly less biofilm formation | effect on extant antibiotics ineffective against bacterial biofilms, e.g., Tobramycin (PsA): enables activity
